Reference: article PMC10243242 (European Journal of Clinical Pharmacology, 2023)
Where “and” joins values, the source holds several entries; their conditions need not be identical. Identical values can stand only once. Like-named read-outs stand apart in the source and are kept apart here. Marks after values point to notes of the source that are not given here.

Tests used:
[1] = Clinical drug-drug interaction study: plasma pharmacokinetics of dextromethorphan and dextrorphan with and without emvododstat; type: in vivo, human; settings: for Tmax: median (range); for CL/F: dextromethorphan
Experimental: (§1) On day 1, 18 healthy subjects (ages ≥ 18 and ≤ 65 years) received a single oral dose of 30 mg (capsule) dextromethorphan followed by a 4-day washout period. On day 5, subjects received a single oral dose of 250 mg emvododstat with food. Two hours later, subjects were administered a single oral dose of 30 mg modified-release dextromethorphan.
Blood samples (3 mL) for dextromethorphan and dextrorphan assessments were collected in K2EDTA vacutainers on day 1 (dextromethorphan alone) and on day 5 (dextromethorphan in combination with emvododstat) at the following timepoints: 0- (predose), 0.5-, 1-, 2-, 3-, 4-, 5-, 6-, 8-, 12-, 24-, and 48-h post dextromethorphan dose. Within 120 min of collection of blood samples, plasma was harvested by centrifuging blood samples at 2000 ± 20 g for 10 min at 4 °C. Upon harvesting, plasma was transferred to 2-mL polypropylene tubes and immediately stored at – 20 ± 5 °C until analysis.
Concentrations of dextromethorphan and dextrorphan in human plasma samples were determined using high-performance liquid chromatography with tandem mass […] (LC-MS/MS) detection. The bioanalytical method was validated, and its performance during bioanalysis was within the limits specified in current regulatory guidance over a calibration range of 50 to 50,000 pg/mL. Validation included testing such as linearity, sensitivity, specificity, selectivity, accuracy and precision, dilution effects, recovery, ruggedness, and stability.
Briefly, dextromethorphan and dextrorphan were extracted from 0.2 mL of human K2EDTA plasma using an automated liquid–liquid extraction followed by detection using LC-MS/MS. Stable isotope labeled internal standard (dextromethorphan-d3 and dextrorphan-d3) was used to track the analytes potential variability. To 0.2 mL of plasma, the internal standard (IS) working solution diluted in an ammonium formate/ammonium hydroxide buffer solution was added. The analytes and ISs were extracted using methyl-tert-butyl-ether (MTBE). A portion of the upper layer was transferred to a 96 deep well collection plate using an automated liquid handling system. After evaporation to dryness, the dry residue was reconstituted with the mobile phase and injected on a Sciex API 4000. The chromatographic separation was performed in isocratic mode using BetaSil CN column (dimensions 50 × 4.6 mm, 5 μm) and methanol/Milli-Q type water with ammonium formate and formic acid as mobile phase. The mass spectrometer detection was performed in positive ion mode with multiple reaction monitoring (MRM) transitions of 272.2 → 215.3, 275.2 → 215.3, 258.2 → 201.2, and 261.2 → 157.2 for dextromethorphan, dextromethorphan-d3, dextrorphan, and dextrorphan-d3, respectively.
Dextromethorphan and dextrorphan concentrations in study plasma samples were determined using duplicate plasma calibration curves of dextromethorphan and dextrorphan in each analytical batch. Additionally, duplicate quality control plasma samples spiked with dextromethorphan and dextrorphan at four concentration levels (low, 150 pg/mL; intermediate, 2000 pg/mL; medium, 25,000 pg/mL; and high, […]) were included in each analytical batch to assess the assay performance of the bioanalytical method. The accuracy (%bias) of QC samples in all analytical batches was within ± 4.6%, and precision (%coefficient of variation) was less than 6.2% for dextromethorphan and dextrorphan.
Non-compartmental pharmacokinetics were performed using Phoenix® WinNonlin (Version 8.1, Certara, Princeton, NJ, USA). Primary parameters consisted of AUC0-last, AUC0-inf, and Cmax. Secondary parameters included T1/2, Tmax, and CL/F (drug clearance). Bioavailability assessments were calculated using SAS software (Version 9.4, SAS, Cary, NC, USA) in accordance with current regulatory guidelines. A mixed linear model was fitted on log-transformed AUC0-inf, AUC0-t, and Cmax for both parent and metabolite. […]

[2] = molecular target: T1, CYP2D6 (Homo sapiens, UniProt P10635); set-up: method as in PMID 34846990; settings: cited from earlier work
[3] = Safety and tolerability in healthy subjects; type: in vivo, human; settings: single doses of dextromethorphan 30 mg with and without emvododstat 250 mg, 18 healthy subjects
Source text: The safety and tolerability of dextromethorphan alone and with emvododstat were monitored.

[4] = test system: SARS-CoV-2; set-up: method as in PMID 33249060; settings: SARS-CoV-2019, cell culture, cited from earlier work
[5] = test system: human bone marrow progenitor cells; settings: cultured human bone marrow progenitor cells; cited from earlier work
[6] = rats dosed for up to 28 days; cited from earlier work
[7] = dogs dosed for up to 28 days; cited from earlier work
[8] = humans; cited from earlier work
[9] = molecular target: T1, CYP2D6; assay: Clinical drug-drug interaction study: in vivo CYP2D6 inhibition with dextromethorphan as probe substrate; set-up: On day 1, 18 healthy subjects (ages ≥ 18 and ≤ 65 years) received a single oral dose of 30 mg (capsule) dextromethorphan; from tissue; host or cells: Healthy human subjects in vivo; The enzyme is their own; settings: single oral dose 250 mg emvododstat, dextromethorphan as sensitive probe substrate, healthy subjects
Experimental: as §1
Non-compartmental pharmacokinetics were performed using Phoenix® WinNonlin (Version 8.1, Certara, Princeton, NJ, USA). Primary parameters consisted of AUC0-last, AUC0-inf, and Cmax. Secondary parameters included T1/2, Tmax, and CL/F (drug clearance). Bioavailability assessments were calculated using SAS software (Version 9.4, SAS, Cary, NC, USA) in accordance with current regulatory guidelines. A mixed linear model was fitted on log-transformed AUC0-inf, AUC0-t, and Cmax for both parent and metabolite. The model included terms for treatment (combined emvododstat + dextromethorphan as test treatment versus dextromethorphan as reference treatment) and subject as a random factor. LSM (geometric least squares mean) for the treatment ratio and 90% confidence intervals (90% CI) were estimated from the model.

[10] = dextrorphan in plasma after 30 mg dextromethorphan alone, geometric mean (%CV)
[11] = dextrorphan in plasma after 30 mg dextromethorphan with 250 mg emvododstat, geometric mean (%CV)
[12] = dextromethorphan with emvododstat vs alone

T1 sequence (P10635 whole entry): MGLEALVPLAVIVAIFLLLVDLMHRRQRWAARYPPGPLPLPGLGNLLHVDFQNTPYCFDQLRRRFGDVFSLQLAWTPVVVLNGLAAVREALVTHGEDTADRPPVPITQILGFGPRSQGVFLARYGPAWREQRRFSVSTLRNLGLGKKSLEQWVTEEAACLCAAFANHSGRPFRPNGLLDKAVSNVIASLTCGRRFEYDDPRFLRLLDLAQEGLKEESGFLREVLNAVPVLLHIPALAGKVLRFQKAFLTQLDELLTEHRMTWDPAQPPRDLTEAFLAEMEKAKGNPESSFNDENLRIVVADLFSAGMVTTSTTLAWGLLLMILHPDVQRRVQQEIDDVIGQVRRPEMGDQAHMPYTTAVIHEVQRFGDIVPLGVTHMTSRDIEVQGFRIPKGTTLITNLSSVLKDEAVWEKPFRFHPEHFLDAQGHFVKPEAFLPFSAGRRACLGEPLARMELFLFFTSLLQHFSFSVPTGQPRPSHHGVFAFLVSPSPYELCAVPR

## CN1CC[C@@]23CCCC[C@@H]2[C@@H]1Cc1ccc(O)cc13 [Dextrorphan, dextrorphan]
[1]; dextromethorphan in the presence of emvododstat
  Geometric mean metabolite/parent ratio for AUC (dextrorphan/dextromethorphan): 0.182 and 0.18
[1]; [10]
  AUC0-last: 31,852 (45.7) h·pg/mL
  AUC(0-inf): 33,194 (43.8) h·pg/mL
[1]; [11]
  AUC0-last: 29,382 (40.7) h·pg/mL
  AUC(0-inf): 30,875 (38.8) h·pg/mL
[1]; dextrorphan in plasma after 30 mg dextromethorphan with 250 mg emvododstat
  Tmax: 4 (1–4) h
[1]; dextrorphan, Cmax LSM ratio just inside, 90% CIs outside of the no effect range 0.80 to 1.25
  Effect of CYP2D6 inhibition on peak exposure (Cmax): slightly affected
[1]; human, oral, dextrorphan in plasma after 30 mg dextromethorphan alone, geometric mean (%CV)
  Cmax: 5 ng/mL
[1]; human, oral, dextrorphan in plasma after 30 mg dextromethorphan with 250 mg emvododstat, geometric mean (%CV)
  Cmax: 4.05 ng/mL
[1]; human, plasma, oral, 30 mg, dextrorphan in plasma after 30 mg dextromethorphan alone, geometric mean (%CV), read-out: T1/2 (converted)
  half-life: 5.86 h
[1]; human, plasma, oral, dextrorphan in plasma after 30 mg dextromethorphan with 250 mg emvododstat, geometric mean (%CV), read-out: T1/2 (converted)
  half-life: 8.41 h
[1]; human, plasma, oral, dextrorphan, alone and in combination with emvododstat, read-out: Effective T1/2
  half-life: 6 to 8 h
[1]; human, plasma, oral, dextrorphan, 30 mg dextromethorphan capsules alone
  AUC(0-t): 31.9 ng·h/mL
[1]; human, plasma, oral, dextrorphan, 30 mg dextromethorphan capsules alone, read-out: AUC0-inf
  AUC(0-inf): 33.2 ng·h/mL
[1]; human, plasma, oral, dextrorphan, dextromethorphan given concurrently with emvododstat
  AUC(0-t): 29.4 ng·h/mL
[1]; human, plasma, oral, dextrorphan, dextromethorphan given concurrently with emvododstat, read-out: AUC0-inf
  AUC(0-inf): 30.9 ng·h/mL
[1]; prior to administration of emvododstat
  Geometric mean metabolite/parent ratio for AUC (dextrorphan/dextromethorphan): 1.69

## O=C(Oc1ccc(Cl)cc1)N1CCc2c([nH]c3ccc(Cl)cc23)C1c1ccc(O)cc1 (stereo not shown) [O-desmethyl emvododstat]
[2]; in vitro, compared with emvododstat
  Inhibition of CYP2D6 activity (in words): to a lesser extent

## COc1ccc2c(c1)[C@]13CCCC[C@@H]1[C@H](C2)N(C)CC3 [Dextromethorphan, dextromethorphan, reference compound]
[1]; dextromethorphan in plasma, 30 mg dextromethorphan with 250 mg emvododstat (day 5), geometric mean (%CV), n = 16
  T1/2: 41.4^b (39.2) h
[1]; dextromethorphan in plasma, 30 mg oral dextromethorphan alone (day 1), geometric mean (%CV)
  T1/2: 9.15 (25.2) h
[1]; [12]
  Increase in T1/2: 32 h
  Reduction in clearance (CL/F): 94%
[1]; 30 mg dextromethorphan with 250 mg emvododstat (day 5), geometric mean (%CV), n = 16
  CL/F: 81.5^b (117.0) L/h
[1]; 30 mg oral dextromethorphan alone (day 1), geometric mean (%CV)
  CL/F: 1367 (176.7) L/h
[1]; human, oral, dextromethorphan in plasma, 30 mg dextromethorphan with 250 mg emvododstat (day 5), geometric mean (%CV)
  AUC(0-t): 157 ng·h/mL
[1]; human, oral, dextromethorphan in plasma, 30 mg dextromethorphan with 250 mg emvododstat (day 5), geometric mean (%CV), n = 16, read-out: AUC0-inf
  AUC(0-inf): 362 ng·h/mL
[1]; human, oral, dextromethorphan in plasma, 30 mg dextromethorphan with 250 mg emvododstat (day 5), read-out: Tmax
  Tmax: 4 h
[1]; human, plasma, oral, dextromethorphan in plasma, 30 mg dextromethorphan with 250 mg emvododstat (day 5), geometric mean (%CV), n = 16, read-out: T1/2 (converted)
  half-life: 41 h
[1]; human, plasma, po, 30 mg, dextromethorphan in plasma, 30 mg oral dextromethorphan alone (day 1), geometric mean (%CV), read-out: T1/2 (converted)
  half-life: 9 h
[1]; human, dextromethorphan in plasma, 30 mg dextromethorphan 2 h after 250 mg oral emvododstat (day 5), geometric mean (%CV)
  Cmax: 5.85 ng/mL
[1]; human, dextromethorphan in plasma, 30 mg oral dextromethorphan alone (day 1), geometric mean (%CV)
  AUC(0-t): 18.8 ng·h/mL
[1]; human, dextromethorphan in plasma, 30 mg oral dextromethorphan alone (day 1), geometric mean (%CV), read-out: AUC0-inf
  AUC(0-inf): 21.6 ng·h/mL
[1]; human, dextromethorphan in plasma, 30 mg oral dextromethorphan alone (day 1), healthy subjects, geometric mean (%CV)
  Cmax: 2.01 ng/mL
[1]; human, dextromethorphan in plasma, 30 mg oral dextromethorphan alone (day 1), read-out: Tmax
  Tmax: 4 h
[3]
  Drug-related adverse effects: mild and reversible

## COc1ccc(C2c3[nH]c4ccc(Cl)cc4c3CCN2C(=O)Oc2ccc(Cl)cc2)cc1 (stereo not shown) [Emvododstat, 4-chlorophenyl 6-chloro-1-[4-methoxyphenyl]-1,3,4,9-tetrahydro-2H-pyrido[3,4-b]indole-2-carboxylate]
[3]
  Drug-related adverse effects: mild and reversible
[4]; read-out: EC50, decreased capsid protein
  EC50: 0.00196 µM
[4]; read-out: EC50, decreased viral titer
  EC50: 0.0026 µM
[4]; read-out: EC90, decreased viral titer
  EC90: 0.053 µM
[2]; human liver microsomes, non-competitive inhibitor, read-out: Inhibition constant (Ki) for CYP2D6
  Ki: 0.038 µM and 0.0377 µM
[2]; in vitro
  IC50: 0.017 µM
[5]
  Effect on viability or proliferation: does not impair
[6]
  Myelotoxicity: no evidence of myelotoxicity
[7]
  Myelotoxicity: no evidence of myelotoxicity
[8]
  Myelotoxicity: no evidence of myelotoxicity
[9]
  In vivo CYP2D6 inhibitor classification: strong inhibitor of CYP2D6 activity
